In article PMC6138628, “Enhanced uptake of gH625 by blood brain barrier compared to liver in vivo: characterization of the mechanism by an in vitro model and implications for delivery” (Scientific Reports, 2018):
Starred links: 1 amine or outer side, 2 acyl side, 3 side chain; linkers in the order of their positions; H or OH if unused. Non-standard residues stand in square brackets, D forms with d. Residues, ends and D or L forms follow the SMILES beside them. X1 = O=C([C@H](Cc1c[nH]cn1)N(c1ccc([N+](=O)[O-])c2nonc12)[*:1])[*:2]

Assays:
liver = assay: In vivo liver uptake, fluorescence microscopy of rat liver slices; parameters: species or system male Wistar rats; details: single i.v. 10, 20, 40 µg/100 g bw, 3.5 hours
Protocol: In vivo studies were performed in male Wistar rats housed under a 12 hours light-dark cycle with free access to food and water. The animals were allocated in five groups, each consisting of three rats. Three animal groups received a single i.v. administration of NBD-gH625 at a concentration of 10 µg, 20 µg, and 40 µg/100 g bw, respectively. Control group received vehicle while another group received gH-625 (40 µg/100 g bw). Both NBD-gH625 and gH625 were dissolved in phosphate-buffered saline. After 3.5 hours from the i.v. administration, the animals were anesthetized with Zoletil® (40 mg/100 g) and euthanized by decapitation. This study was carried out in strict accordance with recommendations in the European Guide for the Care and Use of Laboratory Animals. […]
(§1) To evaluate the effect of concentration on the systemic delivery of NBD-gH625, a fluorescence microscopy analysis was performed as previously reported.
Briefly, livers and brains were isolated and fixed for 24 hours in Bouin’s fixative (71% picric acid, 5% acetic acid, 24% formaldehyde) and embedded in paraffin wax (Carlo Erba, Milan, Italy). […] All images were then analysed using Fiji 1.50 software to determine the mean fluorescence and the integrated density, defined as the product of the mean fluorescence per the region of interest (μm^2)[32]. The percentage of delivered vs administered NBD-gH625 was calculated.

brain / BBB = assay: In vivo brain uptake, fluorescence microscopy of rat brain; parameters: species or system male Wistar rats
Protocol: In vivo studies were performed in male Wistar rats housed under a 12 hours light-dark cycle with free access to food and water. The animals were allocated in five groups, each consisting of three rats. Three animal groups received a single i.v. administration of NBD-gH625 at a concentration of 10 µg, 20 µg, and 40 µg/100 g bw, respectively. Control group received vehicle while another group received gH-625 (40 µg/100 g bw). Both NBD-gH625 and gH625 were dissolved in phosphate-buffered saline. After 3.5 hours from the i.v. administration, the animals were anesthetized with Zoletil® (40 mg/100 g) and euthanized by decapitation. This study was carried out in strict accordance with recommendations in the European Guide for the Care and Use of Laboratory Animals. Every effort was made to minimize animal pain and suffering. All animal protocols were approved by the Committee on the Ethics of Animal Experiments of the University of Napoli Federico II (Italy) and the Italian Minister of Health. (Protocol number 2012/000180).
The ex-vivo fluorescence microscopy analysis was performed to evaluate the distribution of NBD-gH625 on both sides of the BBB. In order to evaluate if there is a linear relationship between slides fluorescence integrated density and the amount of the peptide, a calibration curve was obtained. In particular, increasing amounts of NBD-gH625 (0–30 µM) were spotted on microscope slides and images at 515 nm were acquired (See the Results section) and analysed as described below. Brains were removed from animals, sectioned sagittally in thick slices, washed in PBS, mounted on coverslips, stained with DAPI (4′–6 Diamidino-2-Phenylindole, Dilactate) (Invitrogen, Carlsbad, CA, USA) and analysed under Axioskop fluorescence microscope (Zeiss). Images, at least 10 field of view (800 × 700 μm each) for each experimental class, were acquired using an AxioCam MRc5 (Zeiss) with DAPI filter (λex 350 nm; λem 461 nm) and a fluorescein isothiocyanate filter (λex 488 nm; λem 515 nm).
To evaluate the distribution of NBD-gH625 on both sides of the BBB, we estimated the fluorescence inside the blood vessels (without discriminating between the amount present in the blood and that present in the endothelial cells) and outside the blood vessels in 10 images for each experimental class. In detail, to assess the NBD-gH625 that reached without crossing the BBB, we selected blood vessels as the region of interest (ROI) (inbound) and evaluated the fluorescence intensity; then, on the non-zero thresholded images, an inversion of selected ROI was carried out to obtain the complementary ROI to calculate the amounts of NBD-gH625 which crossed the BBB (outbound).
The morphology of blood vessels was easily identified and outlined; the images were calibrated by ImageJ Rodbard function; integrated density values were calculated within the outlines exclusively, to be considered as inside fluorescence. Then, the thresholded and outlined images, to exclude both blood vessels and background values, were used to calculate the integrated density as outside fluorescence.
as §1
Briefly, livers and brains were isolated and fixed for 24 hours in Bouin’s fixative (71% picric acid, 5% acetic acid, 24% formaldehyde) and embedded in paraffin wax (Carlo Erba, Milan, Italy). Tissue sections (10 μm of thickness) were incubated in 0.1% Sudan Black B dissolved in 70% ethanol for 20 minutes to reduce the tissues autofluorescence. The excess of Sudan Black B was removed by washing with Tris-buffered saline containing 0.02% Tween 20[30],[31]. Sections were stained with DAPI to counterstain nuclei, then mounted with a coverslip in glycerol/phosphate-buffered saline (1:1) and acquired using an AxioCam MRc5 with DAPI filter (λex 350 nm; λem 461 nm) and a fluorescein isothiocyanate filter (λex 488 nm; λem 515 nm). […]

[1] = single i.v., 3.5 hours after administration, ex vivo brain slices, 515 nm

CC[C@H](C)[C@H](NC(=O)[C@H](CC(C)C)NC(=O)[C@H](C)NC(=O)[C@H](CC(N)=O)NC(=O)[C@H](Cc1ccc(O)cc1)NC(=O)[C@H](Cc1c[nH]cn1)NC(=O)[C@H](C)NC(=O)[C@H](Cc1c[nH]c2ccccc12)NC(=O)[C@H](CCCNC(=N)N)NC(=O)[C@@H](NC(=O)[C@H](CC(C)C)NC(=O)[C@@H](NC(=O)[C@H](CO)NC(=O)[C@H](C)NC(=O)[C@H](CC(C)C)NC(=O)CNC(=O)[C@H](Cc1c[nH]cn1)Nc1ccc([N+](=O)[O-])c2nonc12)[C@@H](C)O)[C@@H](C)O)C(=O)N[C@@H](CCCNC(=N)N)C(=O)N[C@@H](C)C(=O)N[C@@H](Cc1ccccc1)C(N)=O [NBD-gH625] (H-[X1]GLASTLTRWAHYNALIRAF-NH2)
Integrated density of fluorescence on liver slices, dependence on dose (liver): lowest dose of NBD-gH625 has higher effect
Percentage of peptide delivered in liver vs administered, dependence on dose (liver; integrated density calibrated with known amounts): lower doses produced higher percentages of delivered peptide
Integrated density of fluorescence on brain slices (brain / BBB; single i.v. 40 µg/100 g bw, 3.5 hours): comparable to the control
Integrated density of fluorescence on brain slices, dependence on dose (brain / BBB; single i.v. 10, 20, 40 µg/100 g bw, 3.5 hours): lower peptide concentrations are able to improve the reaching of the brain more compared to higher concentrations
Percentage of peptide delivered in brain vs administered, dependence on dose (brain / BBB; single i.v. 10, 20, 40 µg/100 g bw, 3.5 hours, integrated density calibrated with known amounts): lower doses produced higher percentages of delivered peptide
Peptide crossing the BBB (fluorescence outside blood vessels, brain parenchyma) (brain / BBB; [1]): crosses the BBB
Peptide delivered to the BBB (fluorescence inside blood brain vessels, integrated density) (brain / BBB; [1]): reaches the BBB of treated animals
